Measured values from US7957909B2, “Identification, monitoring and treatment of disease and characterization of biological condition using gene expression profiles” (Source Precision Medicine, Inc., priority 1999, dated 2011).

Experiments:
[1] = tested on: Inflammation Gene Expression Panel of Table 1; assay: Inflammation index of stable rheumatoid arthritis patients under three treatment regimens (FIGS. 21-23); assay type: in vivo, human; conditions: for inflammation index compared to normal: 10 stable rheumatoid arthritis patients per treatment group
Text: (§1) FIG. 17A further illustrates the consistency of inflammatory gene expression, illustrated here with respect to 7 loci of (of the Inflammation Gene Expression Panel of Table 1), in a population of 44 normal, undiagnosed blood donors. For each individual locus is shown the range of values lying within ±2 standard deviations of the mean expression value, which corresponds to 95% of a normally distributed population. Notwithstanding the great width of the confidence interval (95%), the measured gene expression value (ΔCT)—remarkably—still lies within 10% of the mean, regardless of the expression level involved. As described in further detail below, for a given biological condition an index can be constructed to provide a measurement of the condition. This is possible as a result of the conjunction of two circumstances: (i) there is a remarkable consistency of Gene Expression Profiles with respect to a biological condition across a population and (ii) there can be employed procedures that provide substantially reproducible measurement of constituents in a Gene Expression Panel giving rise to a Gene Expression Profile, under measurement conditions wherein specificity and efficiencies of amplification for all constituents of the panel are substantially similar and which therefore provides a measurement of a biological condition. Accordingly, a function of the expression values of representative constituent loci of FIG. 17A is here used to generate an inflammation index value, which is normalized so that a reading of 1 corresponds to constituent expression values of healthy subjects, as shown in the right-hand portion of FIG. 17A.
This subject in fact was also on a regimen of an anti-inflammation steroid (prednisone) that was being tapered; within approximately one week after the inflammation index was sampled, the subject experienced a significant flare of clinical symptoms.

[2] = tested on: IL1A, IL1B, TNF, IFNG and IL10; assay: Acute Inflammation Index from blood of a single patient treated for optic neuritis (FIG. 2); assay type: in vivo, human; conditions: single patient with optic neuritis
Text: (§2) For measuring the amount of a particular RNA in a sample, we have used methods known to one of ordinary skill in the art to extract and quantify transcribed RNA from a sample with respect to a constituent of a Gene Expression Panel. (See detailed protocols below. Also see PCT application publication number WO 98/24935 herein incorporated by reference for RNA analysis protocols). Briefly, RNA is extracted from a sample such as a tissue, body fluid, or culture medium in which a population of a subject might be growing. For example, cells may be lysed and RNA eluted in a suitable solution in which to conduct a DNAse reaction. First strand synthesis may be performed using a reverse transcriptase. Gene amplification, more specifically quantitative PCR assays, can then conducted and the gene of interest size calibrated against a marker such as 18S rRNA (Hirayama et al., Blood 92, 1998: 46-52). Samples are measured in multiple duplicates, for example, 4 replicates. Relative quantitation of the mRNA is determined by the difference in threshhold cycles between the internal control and the gene of interest. In an embodiment of the invention, quantitative PCR is performed using amplification, reporting agents and instruments such as those supplied commercially by Applied Biosystems (Foster City, Calif.). […]

[3] = tested on: Inflammation Gene Expression Panel of Table 1; assay: Inflammatory gene expression in whole blood of a human subject after a single oral dose of prednisone (FIG. 14); assay type: in vivo
Text: as §2

[4] = tested on: 5 genes (of the Inflammation Gene Expression Panel of Table 1); assay: Gene expression in whole blood samples from a subject given prednisone, challenged with lipopolysaccharide (FIG. 15); assay type: in vivo, human; conditions: blood challenged with 0.1 ng/ml lipopolysaccharide
Text: For measuring the amount of a particular RNA in a sample, we have used methods known to one of ordinary skill in the art to extract and quantify transcribed RNA from a sample with respect to a constituent of a Gene Expression Panel. (See detailed protocols below. Also see PCT application publication number WO 98/24935 herein incorporated by reference for RNA analysis protocols). Briefly, RNA is extracted from a sample such as a tissue, body fluid, or culture medium in which a population of a subject might be growing. For example, cells may be lysed and RNA eluted in a suitable solution in which to conduct a DNAse reaction. First strand synthesis may be performed using a reverse transcriptase. Gene amplification, more specifically quantitative PCR assays, can then conducted and the gene of interest size calibrated against a marker such as 18S rRNA (Hirayama et al., Blood 92, 1998: 46-52). Samples are measured in multiple duplicates, for example, 4 replicates. Relative quantitation of the mRNA is determined by the difference in threshhold cycles between the internal control and the gene of interest. In an embodiment of the invention, quantitative PCR is performed using amplification, reporting agents and instruments such as those supplied commercially by Applied Biosystems (Foster City, Calif.). Given a defined efficiency of amplification of target transcripts, the point (e.g., cycle number) that signal from amplified target template is detectable may be directly related to the amount of specific message transcript in the measured sample. Similarly, other quantifiable signals such as fluorescence, enzyme activity, disintegrations per minute, absorbance, etc., when correlated to a known concentration of target templates (e.g., a reference standard curve) or normalized to a standard with limited variability can be used to quantify the number of target templates in an unknown sample.
Specific RNAs are amplified using message specific primers or random primers. […]

[5] = tested on: Inflammation Gene Expression Panel of Table 1; assay: Inflammation index of a single subject with inflammatory bowel disease treated with Remicade (FIG. 24); assay type: in vivo, human
Text: as §1
FIG. 24 illustrates use of the inflammation index for assessment of a single subject suffering from inflammatory bowel disease, for whom treatment with Remicade was initiated in three doses. […] Again, the index, besides providing a measure of biological condition, is here used to measure the effectiveness of therapy (Remicade), as well as to provide a target for therapeutic intervention in terms of both dose and schedule.

[6] = tested on: Inflammation Gene Expression Panel of Table 1; conditions: studies have shown; some subjects; cited from earlier work
IL1B = assay: Whole blood response to E. coli filtrate alone and with polymyxin B (FIG. 34); assay type: cell-based, human; conditions: polymyxin B added to E. coli filtrate
Text: FIGS. 27 through 41 illustrate the use of gene expression panels in early identification and monitoring of infectious disease. These figures plot the response, in expression products of the genes indicated, in whole blood, to the administration of various infectious agents or products associated with infectious agents. In each figure, the gene expression levels are “calibrated”, as that term is defined herein, in relation to baseline expression levels determined with respect to the whole blood prior to administration of the relevant infectious agent. In this respect the figures are similar in nature to various figures of our below-referenced patent application WO 01/25473 (for example, FIG. 15 therein). The concentration change is shown ratiometrically, and the baseline level of 1 for a particular gene locus corresponds to an expression level for such locus that is the same, monitored at the relevant time after addition of the infectious agent or other stimulus, as the expression level before addition of the stimulus. Ratiometric changes in concentration are plotted on a logarithmic scale. Bars below the unity line represent decreases in concentration and bars above the unity line represent increases in concentration, the magnitude of each bar indicating the magnitude of the ratio of the change. […]
The responses were monitored at 2, 6, and 24 hours after administration. […]

[7] = 10 stable rheumatoid arthritis patients

With `CN(Cc1cnc2nc(N)nc(N)c2n1)c1ccc(C(=O)N[C@@H](CCC(=O)O)C(=O)O)cc1` [methotrexate] the “inflammation index compared to normal” value [1] was “elevated compared to normal”.

For `C[C@]12C=CC(=O)C=C1CC[C@@H]1[C@@H]2C(=O)C[C@@]2(C)[C@H]1CC[C@]2(O)C(=O)CO` [prednisone], the acute inflammation index ([2]; oral prednisone at 60 mg per day tapered to 10 mg per day) was “goes up”, the “expression of inflammation-related gene loci relative to baseline sample” value ([3]; 2 hr post single 60 mg oral dose) was “decreased expression of most of inflammation-related gene loci” and the “expression of inflammation-related gene loci relative to baseline sample” value ([3]; 24 hr post single 60 mg oral dose, loci with reduced expression at 2 hours) was “elevated gene expression levels”. For the same molecule, the “gene expression of the 5 loci in relation to t=0” value ([4]; 24 hours post administration) was “inhibitory effect of the prednisone is no longer apparent”, the “loci at which gene expression is higher than at t=0 (rebound effect)” value ([4]; 24 hours post administration) was 3 of the 5 loci and the “gene expression of the 5 loci in relation to t=0” value ([4]; two hours after single dose) was “dramatically reduced gene expression”.

With `C[C@H]1C[C@@H]2[C@H]([C@@H](O)C[C@@]3(C)[C@H]2CC[C@]3(O)C(=O)COC(=O)CCC(=O)O)[C@@]2(C)C=CC(=O)C=C12` [solumedrol] the acute inflammation index ([2]; treatment with IV solumedrol at 1 gram per day) was “falls rapidly”.

For Enbrel, the “patients with inflammation index in the normal range” value [1, 7] was 80% and the “inflammation index compared to normal” value [1] was “comes much closer to normal”.

For Remicade: another TNF inhibitor, the “abnormally low inflammation index in two of the patients” value [1, 7] was “suggesting an immunosuppressive response”, the “inflammation index compared to normal” value [1] was “all but one of the patients being treated with Remicade have an inflammation index at or below normal” and the inflammation index ([5]; 24 hours after the first treatment) was “returned to the normal range”. The inflammation index ([5]; just prior to the second dose) was “elevated”, the inflammation index ([5]; prior to the third dose) was “in the normal range” and the “association with infections in studies” value [6] was “associated with serious infections in some subjects”.

With polymyxin B the “effect on the response of IL1B locus to E. coli filtrate” value (IL1B) was “did not affect the response”.
